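Tested at 5 concentrations; 48 h exposure; 96-well plates; endpoints linearly interpolated, else capped at highest concentration. The concentration for 50% growth inhibition is given as GI50.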 Active and inactive are the calls of the source. Cut-off read from the data, not from the text of the source: active = GI50 up to about 1.1 µM and inactive = higher.
How the values were obtained:
Experiment in all cases: NCI-60 cell line screen, 48 h
[1] = tested on: IGROV-1
[2] = tested on: SF-268
[3] = tested on: HCT-116
[4] = tested on: NCI-H522
[5] = tested on: KM-20L2
[6] = tested on: SK-MEL-2
[7] = tested on: SNB-75
[8] = tested on: EKVX
[9] = tested on: UACC-62
[10] = tested on: SK-OV-3
[11] = tested on: OVCAR-3
[12] = tested on: TK-10
[13] = tested on: HL-60
[14] = tested on: KM12
[15] = tested on: CAKI-1

SMILES | GI50 [1] | GI50 [2] | GI50 [3] | GI50 [4] | GI50 [5] | GI50 [6] | GI50 [7] | GI50 [8] | GI50 [9] | GI50 [10] | GI50 [11] | GI50 [12] | GI50 [13] | GI50 [14] | GI50 [15]
CS(=O)(=O)ON1C(=O)c2ccc(N)cc2C1=O | > 100 µM (inactive) | > 50.6 µM (inactive) | > 79.8 µM (inactive) | 19.4 µM (inactive) | > 100 µM (inactive) | > 100 µM (inactive) | > 100 µM (inactive) | > 100 µM (inactive) | > 64 µM (inactive) | > 100 µM (inactive) | > 100 µM (inactive) | > 100 µM (inactive) | 17.5 µM (inactive) | > 100 µM (inactive) | –
c1ccc2c3c([nH]c2c1)[C@H]1C2CCCCN2CN1CC3 (stereo not given in full) | > 100 µM (inactive) | 51.6 µM (inactive) | > 100 µM (inactive) | > 100 µM (inactive) | > 100 µM (inactive) | > 100 µM (inactive) | 27.1 µM (inactive) | > 100 µM (inactive) | 51.8 µM (inactive) | > 100 µM (inactive) | > 100 µM (inactive) | > 100 µM (inactive) | 47.2 µM (inactive) | – | > 100 µM (inactive)
c1cc(-c2cn3ccsc3n2)ccn1 | > 100 µM (inactive) | > 100 µM (inactive) | > 75.5 µM (inactive) | > 100 µM (inactive) | > 31.6 µM (inactive) | > 100 µM (inactive) | > 86.9 µM (inactive) | > 41.8 µM (inactive) | > 100 µM (inactive) | > 100 µM (inactive) | > 100 µM (inactive) | > 100 µM (inactive) | > 44.9 µM (inactive) | > 100 µM (inactive) | > 91 µM (inactive)
N#CC(NNC(=O)c1ccccc1O)c1cccc(O)c1 (stereo not given) | 3.4 µM (inactive) | 0.986 µM (active) | 3.26 µM (inactive) | 9.73 µM (inactive) | 33.7 µM (inactive) | 5.7 µM (inactive) | 1.7 µM (inactive) | – | 1.85 µM (inactive) | 3.93 µM (inactive) | 13 µM (inactive) | > 100 µM (inactive) | 4.74 µM (inactive) | 4.52 µM (inactive) | 5.43 µM (inactive)
O=C(O)/C=C\C(=O)Nc1ccc(S(=O)(=O)c2ccc(NC(=O)/C=C\C(=O)O)cc2)cc1 | > 100 µM (inactive) | > 100 µM (inactive) | > 100 µM (inactive) | > 100 µM (inactive) | > 100 µM (inactive) | > 100 µM (inactive) | > 100 µM (inactive) | > 100 µM (inactive) | > 100 µM (inactive) | > 100 µM (inactive) | > 100 µM (inactive) | > 100 µM (inactive) | > 100 µM (inactive) | > 100 µM (inactive) | > 100 µM (inactive)
O=C(c1ccccc1)C(c1ccccc1)C1(O)C(=O)Nc2c(Cl)cc(Cl)cc21 (stereo not given) | – | 21.2 µM (inactive) | – | 16.6 µM (inactive) | 36.8 µM (inactive) | 16.8 µM (inactive) | 15.3 µM (inactive) | 14.2 µM (inactive) | – | 30.2 µM (inactive) | 26 µM (inactive) | 18.3 µM (inactive) | 12.6 µM (inactive) | 23 µM (inactive) | 17.4 µM (inactive)
N#Cc1cccc(-n2[nH]c(=O)ccc2=O)c1 | > 100 µM (inactive) | > 100 µM (inactive) | > 100 µM (inactive) | > 100 µM (inactive) | > 100 µM (inactive) | > 100 µM (inactive) | 59.7 µM (inactive) | – | > 100 µM (inactive) | – | > 100 µM (inactive) | > 100 µM (inactive) | > 100 µM (inactive) | > 100 µM (inactive) | > 100 µM (inactive)
N=C(N)C1=C(O)NC(=O)N(C2CCCCC2)C1 | > 100 µM (inactive) | > 100 µM (inactive) | > 100 µM (inactive) | > 100 µM (inactive) | > 100 µM (inactive) | > 100 µM (inactive) | > 100 µM (inactive) | – | > 100 µM (inactive) | > 100 µM (inactive) | > 100 µM (inactive) | > 100 µM (inactive) | > 100 µM (inactive) | > 100 µM (inactive) | > 100 µM (inactive)
COc1cc(CC2C(=O)OCC2[C@@H](OC(C)=O)c2ccc3c(c2)OCO3)c(Br)c(OC)c1OC (stereo not given in full) | 80.2 µM (inactive) | > 100 µM (inactive) | 76.7 µM (inactive) | 26.5 µM (inactive) | 44 µM (inactive) | 61.4 µM (inactive) | 28.5 µM (inactive) | > 100 µM (inactive) | 37.8 µM (inactive) | > 100 µM (inactive) | 59.2 µM (inactive) | > 100 µM (inactive) | 35.6 µM (inactive) | 31.5 µM (inactive) | > 100 µM (inactive)
O=C(N/C=C/C=C/Sc1ccccc1)OCc1ccccc1 | 21.2 µM (inactive) | 17.5 µM (inactive) | 18.2 µM (inactive) | 16.1 µM (inactive) | 17.2 µM (inactive) | > 10 µM (inactive) | 21.5 µM (inactive) | 24.8 µM (inactive) | 16 µM (inactive) | 33.8 µM (inactive) | 17.3 µM (inactive) | 24.3 µM (inactive) | 8.83 µM (inactive) | 17.5 µM (inactive) | 20.3 µM (inactive)
Cc1ccc(S(=O)(=O)C(C#N)c2nc3ccccc3nc2N2CCOCC2)cc1 (stereo not given) | 13.6 µM (inactive) | 28.6 µM (inactive) | 18.2 µM (inactive) | 18.7 µM (inactive) | 33.4 µM (inactive) | 33.1 µM (inactive) | 22.8 µM (inactive) | > 100 µM (inactive) | 12.4 µM (inactive) | 61.5 µM (inactive) | 33.8 µM (inactive) | 56.6 µM (inactive) | > 10 µM (inactive) | 18.3 µM (inactive) | 25.6 µM (inactive)
CCN(CC)CC1c2ccccc2C(CNc2ccccc2)N1C (stereo not given) | > 100 µM (inactive) | > 100 µM (inactive) | – | > 100 µM (inactive) | > 100 µM (inactive) | > 100 µM (inactive) | 49.3 µM (inactive) | > 100 µM (inactive) | > 100 µM (inactive) | > 100 µM (inactive) | > 100 µM (inactive) | > 100 µM (inactive) | 29.6 µM (inactive) | > 100 µM (inactive) | 92 µM (inactive)
CCN(CC)CCOC(c1ccccc1)c1ccccc1.CCOC(=O)Nc1ccc(S(=O)(=O)NCCCl)cc1.CCOC(=O)Nc1ccc(S(=O)(=O)NCCCl)cc1.Nc1ccc(C(=O)O)c(O)c1 | > 100 µM (inactive) | > 100 µM (inactive) | > 100 µM (inactive) | > 100 µM (inactive) | > 100 µM (inactive) | > 100 µM (inactive) | > 100 µM (inactive) | > 100 µM (inactive) | > 100 µM (inactive) | > 100 µM (inactive) | > 100 µM (inactive) | > 100 µM (inactive) | > 100 µM (inactive) | > 100 µM (inactive) | > 100 µM (inactive)
O.O=C([O-])c1ccccc1Nc1ccccc1C(=O)[O-].[Zn+2] | 13.3 µM (inactive) | 21 µM (inactive) | 38.4 µM (inactive) | 13.2 µM (inactive) | 94 µM (inactive) | 20.7 µM (inactive) | 18.3 µM (inactive) | 24.7 µM (inactive) | 19.7 µM (inactive) | 20.4 µM (inactive) | 18.8 µM (inactive) | 95.1 µM (inactive) | 23.7 µM (inactive) | > 100 µM (inactive) | 5.08 µM (inactive)

— ChEMBL document CHEMBL1201862, “PubChem BioAssay data set” (2004)
